Reference: patent US7018624B2, “Delivery of poly(ethylene glycol)-modified molecules from degradable hydrogels” (Debio Recherche Pharmaceutique S.A., priority 1996, dated 2006)

Assay: Hydrolysis kinetics of the ester linkages of mPEG-O-(CH2)n-COO-mPEG in buffer, followed by HPLC-GPC
Type: physicochemical
Protocol: To precisely measure the hydrolysis kinetics of the ester linkages, water-soluble, non-crosslinked mPEG-O—(CH2)n—COO-MPEG was synthesized as in Example 2. Hydrolysis was carried out in buffer solutions (0.1 M) at different pHs and temperatures, and followed by HPLC-GPC (Ultrahydrogel® 250, Waters).

Hydrolysis half lives of the ester (pH 5.5): >150 days | Hydrolysis half lives of the ester (pH 8.1): 5 days
Substance: mPEG-O-(CH2)n-COO-mPEG [CM ester linkage]
